Test results as given in ChEMBL document CHEMBL4420063, “Pgam1 inhibitors and methods related thereto” (2014).

Tests used:
[1] = Toxicity in athymic nude-Foxn1nu mouse assessed as effect on lung at 100 mg/kg/day, ip for 7 days by H and E staining based histo-pathological analysis; assay type: organism-based; settings: in vivo, 168 h
[2] = Antiproliferative activity against CD34-positive blood stem/progenitor cells from healthy human assessed as reduction in cell viability at 20 uM by trypan blue exclusion based assay
[3] = system: NHDF; assay: Antiproliferative activity against NHDF cells assessed as reduction in cell number up to 40 uM by trypan blue exclusion based assay; settings: human
[4] = system: HaCaT; assay: Antiproliferative activity against human HaCaT cells assessed as reduction in cell number up to 40 uM by trypan blue exclusion based assay
[5] = Antiproliferative activity against human PIG1 cells assessed as reduction in cell number up to 40 uM by trypan blue exclusion based assay
[6] = Toxicity in athymic nude-Foxn1nu mouse assessed as effect on kidney at 100 mg/kg/day, ip for 7 days by H and E staining based histo-pathological analysis; assay type: organism-based; settings: in vivo, 168 h
[7] = Toxicity in ip dosed athymic nude-Foxn1nu mouse dosed for 4 weeks assessed as well-tolerated dose level; assay type: organism-based; settings: in vivo, 672 h
[8] = Toxicity in athymic nude-Foxn1nu mouse assessed as effect on complete blood counts at 100 mg/kg/day, ip for 7 days; assay type: organism-based; settings: in vivo, 168 h
[9] = Toxicity in athymic nude-Foxn1nu mouse assessed as effect on body weight at 100 mg/kg/day, ip for 7 days; assay type: organism-based; settings: in vivo, 168 h
[10] = Toxicity in athymic nude-Foxn1nu mouse assessed as effect on spleen at 100 mg/kg/day, ip for 7 days by H and E staining based histo-pathological analysis; assay type: organism-based; settings: in vivo, 168 h
[11] = system: PBMC; assay: Antiproliferative activity against PBMC from healthy human assessed as reduction in cell viability at 10 to 20 uM by MTT assay; assay type: cell-based
[12] = Toxicity in athymic nude-Foxn1nu mouse assessed as effect on hematopoietic parameters at 100 mg/kg/day, ip for 7 days; assay type: organism-based; settings: in vivo, 168 h
[13] = system: HFF; assay: Antiproliferative activity against HFF cells assessed as reduction in cell number up to 40 uM by trypan blue exclusion based assay; settings: human
[14] = system: NCI-H1299; assay: Inhibition of cell proliferation in human NCI-H1299 cells assessed as reduction in cell number by MTT assay; assay type: functional, cell-based
[15] = system: KG-1a; assay: Inhibition of cell proliferation in human KG1a cells assessed as reduction in cell number by MTT assay; assay type: functional, cell-based
[16] = Toxicity in athymic nude-Foxn1nu mouse assessed as effect on liver at 100 mg/kg/day, ip for 7 days by H and E staining based histo-pathological analysis; assay type: organism-based; settings: in vivo, 168 h
[17] = Inhibition of cell proliferation in human Tu212LN cells assessed as reduction in cell number by MTT assay; assay type: functional, cell-based
[18] = system: KG-1a; assay: Inhibition of cell proliferation in human KG1a cells assessed as reduction in cell number by trypan blue exclusion based assay; assay type: functional

O=C1c2ccccc2C(=O)c2c1cc(S(=O)(=O)Nc1ccc(C(F)(F)F)cc1)c(O)c2O
Activity [1]: Non-Toxic
Activity [2]: Non-Toxic
Activity [3]: Non-Toxic
Activity [4]: Non-Toxic
Activity [5]: Non-Toxic
Activity [6]: Non-Toxic
Activity [7]: 100 mg/kg/day
Activity [8]: Non-Toxic
Activity [9]: Non-Toxic
Activity [10]: Non-Toxic
Activity [11]: Non-Toxic
Activity [12]: Non-Toxic
Activity [13]: Non-Toxic
IC50 [14]: 25.6 µM
IC50 [15]: 17.1 µM
Activity [16]: Non-Toxic
IC50 [17]: 26.5 µM

O=C1c2ccccc2C(=O)c2c1ccc(O)c2O [ATHRAQUINONES A]
IC50 [18]: 58.6 µM
IC50 [15]: 60.2 µM
